The values below come from patent US20230044248A1, “COMBINED INHIBITION OF PD-1, TGFBeta AND ATM TOGETHER WITH RADIOTHERAPY FOR THE TREATMENT OF CANCER” (ARES TRADING S.A., priority 2019, published 2023).

In assay [1] the test system is 4T1 cells. In words: Example 2: dosing schedule of Compound A in the triple combination, 4T1 mammary tumor model. Conditions: dual combination without Compound A.
Description: BALB/c mice were inoculated intramuscularly (i.m.) with 0.5×10^5 4T1 cells (day −7) and treated (n=10 mice/group) with isotype control (400 μg i.v.; day 0, 2, 4)+vehicle control (0.2 mL, p.o., day 0-17), bintrafusp alfa (492 μg i.v.; day 0, 2, 4)+RT (8 Gy, day 0-3), or bintrafusp alfa+RT+Compound A (100 mg/kg, p.o, days 0-3, days 0-10, or day 0-17). Tumor volumes were measured twice weekly and presented as (A) mean±SEM or (B) individual tumor volumes. P-values were calculated by two-way RM ANOVA with Tukey's post-test. (C) For survival analysis, mice were sacrificed when tumor volumes reached ≈2000 mm^3 and median survival times were calculated.
The effect of different dosing schedules of Compound A on the antitumor activity of the triple combination therapy was evaluated in the 4T1 mammary tumor model. […]
(§1) Tumor volumes were calculated with the following formula: tumor volume (mm^3)=tumor length×width×height×0.5236. Tumor growth inhibition (TGI) was calculated with the following formula: TGI (%)=[1−(Ti−T0)/(Vi−V0)]×100, where Ti is the average tumor volume (mm^3) of a treatment group on a given day, TO is the average tumor volume of the treatment group on the first day of treatment, Vi is the average tumor volume of the vehicle control group on the same day as Ti, and V0 is the average tumor volume of the vehicle control group on the first day of treatment. […]
Assay [2] has as its system 4T1 cells. In words: Example 4: triple combination with various RT doses versus bintrafusp alfa+RT, 4T1 mammary tumor model. Conditions: RT 8Gy, QDx4.
Description: Balb/c mice were inoculated with 4T1 cells (0.5×10^6) in the right thigh muscle (day −7). At day 0, when average tumor volumes reached 150 mm^3, mice were treated (n=10 mice/group) with isotype control (400 μg i.v.; Days 0, 2, 4), Bintrafusp alfa (492 μg/mouse i.v.; Days 0, 2, 4)+RT (8Gy, QDx4), or bintrafusp alfa+Compound A (100 mg/kg p.o., QDx4)+RT (8Gy or 6Gy or 4Gy or 2Gy, QDx4). Tumor volumes were measured twice weekly and presented as mean±SEM. P-values were calculated by two-way ANOVA with Sidack's or Tukey's post-test. P-values comparing median survival were calculated with the Log-rank (Mantel-Cox) test.
Treatment was initiated on day 0 when average tumor volume reached ˜150 mm^3. Mice were sacrificed when tumor volumes reached ˜2500 mm^3. […]
Tumor volumes were calculated with the following formula: tumor volume (mm^3)=tumor length×width×height×0.5236.
To compare the percentage survival between different treatment groups, Kaplan-Meier survival curves were generated. Body weight was measured twice weekly and mice were sacrificed when their tumor volume exceeded 2,000 mm^3.
Statistical analyses were performed using GraphPad Prism Software, version 8.0 or 8.0.1. […] A Kaplan-Meier plot was generated to show survival by treatment group and significance was assessed by log-rank (Mantel-Cox) test.
Assay [3] concerns 4T1 cells. Briefly: Example 3: triple combination versus dual and monotherapy controls, 4T1 mammary tumor model. Conditions: day 18.
Description: BALB/c mice were inoculated intramuscularly (i.m.) with 0.5×10^5 4T1 cells (day −7) and treated (n=10 mice/group) with isotype control (400 μg i.v.; day 0, 2, 4)+vehicle control (0.2 mL, p.o., day 0-4), bintrafusp alfa (492 μg i.v.; day 0, 2, 4)+vehicle control, RT (8 Gy, day 0-3)+isotype control+vehicle control, Compound A (100 mg/kg, p.o, days 0-4)+isotype control, bintrafusp alfa+RT, bintrafusp alfa+Compound A, RT+Compound A, or bintrafusp alfa+RT+Compound A. Tumor volumes were measured twice weekly and presented as (A) mean±SEM or (B) individual tumor volumes. P-values were calculated by two-way RM ANOVA with Tukey's post-test. (C) For survival analysis, mice were sacrificed when tumor volumes reached ≈2000 mm^3 and median survival times were calculated. […]
as §1
Assay [4] has as its system 4T1 cells. In words: Example 1: bintrafusp alfa, RT and Compound A in the 4T1 mammary tumor model. It is filed as in vivo, BALB/c mice. Conditions: mice sacrificed at tumor volume ≈2000 mm^3; Compound A 100 mg/kg p.o. day 0-10 where given.

Take “bintrafusp alfa and RT: dual combination therapy of bintrafusp alfa with radiotherapy (RT)”: the median survival in the assay with 4T1 cells [1], in the assay on 4T1 cells [2] and in the assay on 4T1 cells [4] was 26 days each time. Also, the “antitumor activity of dual combination therapy relative to the respective monotherapies” value in the assay on 4T1 cells [3] is listed as “enhanced antitumor activity”.
